Reference: ChEMBL document CHEMBL2073776, “Interaction of structurally diverse pesticides with the human MDR1 gene product P-glycoprotein” (Toxicol Appl Pharmacol, 1996)

Columns and labels:
Format in all cases: functional, cell-based
[1] = molecular target: T1, ATP-dependent translocase ABCB1 (Homo sapiens, UniProt P08183); assay: TP_TRANSPORTER: inhibition of Doxorubicin efflux (Doxorubicin: 50 uM, Chlorthiophos: 250 uM) in MDR1-expressing B16/F10 cells; details: mouse, b16-f10, 250 µM
[2] = molecular target: T2, MDR1 (ABCB1, ATP-dependent translocase) (Homo sapiens, UniProt P08183); assay: TP_TRANSPORTER: inhibition of Doxorubicin efflux (Doxorubicin: 50 uM, Hydramethylnon: 8 uM) in MDR1-expressing B16/F10 cells; details: mouse, probe Doxorubicin
[3] = molecular target: T1, ATP-dependent translocase ABCB1; assay: TP_TRANSPORTER: inhibition of Doxorubicin efflux (Doxorubicin: 50 uM, […]: 250 uM) in MDR1-expressing B16/F10 cells; details: mouse, b16-f10, 250 µM
[4] = molecular target: T2, MDR1 (ABCB1, ATP-dependent translocase); assay: TP_TRANSPORTER: inhibition of Doxorubicin efflux (Doxorubicin: 50 uM, Endosulfan: 100 uM) in MDR1-expressing B16/F10 cells; details: mouse, probe Doxorubicin
[5] = molecular target: T1, ATP-dependent translocase ABCB1; assay: TP_TRANSPORTER: efflux in MDR1-expressing B16/F10 cells; details: mouse
[6] = molecular target: T2, MDR1 (ABCB1, ATP-dependent translocase); assay: TP_TRANSPORTER: inhibition of Doxorubicin efflux (Doxorubicin: 50 uM, Heptachlor: 250 uM) in MDR1-expressing B16/F10 cells; details: mouse, probe Doxorubicin
[7] = molecular target: T2, MDR1 (ABCB1, ATP-dependent translocase); assay: TP_TRANSPORTER: inhibition of Doxorubicin efflux (Doxorubicin: 50 uM, Parathion: 250 uM) in MDR1-expressing B16/F10 cells; details: mouse, probe Doxorubicin
[8] = molecular target: T2, MDR1 (ABCB1, ATP-dependent translocase); assay: TP_TRANSPORTER: inhibition of Doxorubicin efflux (Doxorubicin: 50 uM, Tetrachlorohydroquinone: 250 uM) in MDR1-expressing B16/F10 cells; details: mouse, probe Doxorubicin
[9] = molecular target: T1, ATP-dependent translocase ABCB1; assay: TP_TRANSPORTER: inhibition of Doxorubicin efflux (Doxorubicin: 50 uM, Phenamiphos: 250 uM) in MDR1-expressing B16/F10 cells; details: mouse, b16-f10, 250 µM
[10] = molecular target: T1, ATP-dependent translocase ABCB1; assay: TP_TRANSPORTER: inhibition of Doxorubicin efflux (Doxorubicin: 50 uM, Clotrimazole: 100 uM) in MDR1-expressing B16/F10 cells; details: mouse, b16-f10, 100 µM
[11] = molecular target: T2, MDR1 (ABCB1, ATP-dependent translocase); assay: TP_TRANSPORTER: inhibition of Doxorubicin efflux (Doxorubicin: 50 uM, Heptachlor epoxide: 250 uM) in MDR1-expressing B16/F10 cells; details: mouse, probe Doxorubicin
[12] = molecular target: T1, ATP-dependent translocase ABCB1; assay: TP_TRANSPORTER: inhibition of Doxorubicin efflux (Doxorubicin: 50 uM, Fluvalinate: 250 uM) in MDR1-expressing B16/F10 cells; details: mouse, b16-f10, 250 µM
[13] = molecular target: T2, MDR1 (ABCB1, ATP-dependent translocase); assay: TP_TRANSPORTER: inhibition of Doxorubicin efflux (Doxorubicin: 50 uM, Chlordecone: 250 uM) in MDR1-expressing B16/F10 cells; details: mouse, probe Doxorubicin
[14] = molecular target: T2, MDR1 (ABCB1, ATP-dependent translocase); assay: TP_TRANSPORTER: inhibition of Doxorubicin efflux (Doxorubicin: 50 uM, Dicapthon: 250 uM) in MDR1-expressing B16/F10 cells; details: mouse, probe Doxorubicin
[15] = molecular target: T1, ATP-dependent translocase ABCB1; assay: TP_TRANSPORTER: inhibition of Doxorubicin efflux (Doxorubicin: 50 uM, Chlorpyrifos: 250 uM) in MDR1-expressing B16/F10 cells; details: mouse, b16-f10, 250 µM

T2 sequence (P08183 whole entry): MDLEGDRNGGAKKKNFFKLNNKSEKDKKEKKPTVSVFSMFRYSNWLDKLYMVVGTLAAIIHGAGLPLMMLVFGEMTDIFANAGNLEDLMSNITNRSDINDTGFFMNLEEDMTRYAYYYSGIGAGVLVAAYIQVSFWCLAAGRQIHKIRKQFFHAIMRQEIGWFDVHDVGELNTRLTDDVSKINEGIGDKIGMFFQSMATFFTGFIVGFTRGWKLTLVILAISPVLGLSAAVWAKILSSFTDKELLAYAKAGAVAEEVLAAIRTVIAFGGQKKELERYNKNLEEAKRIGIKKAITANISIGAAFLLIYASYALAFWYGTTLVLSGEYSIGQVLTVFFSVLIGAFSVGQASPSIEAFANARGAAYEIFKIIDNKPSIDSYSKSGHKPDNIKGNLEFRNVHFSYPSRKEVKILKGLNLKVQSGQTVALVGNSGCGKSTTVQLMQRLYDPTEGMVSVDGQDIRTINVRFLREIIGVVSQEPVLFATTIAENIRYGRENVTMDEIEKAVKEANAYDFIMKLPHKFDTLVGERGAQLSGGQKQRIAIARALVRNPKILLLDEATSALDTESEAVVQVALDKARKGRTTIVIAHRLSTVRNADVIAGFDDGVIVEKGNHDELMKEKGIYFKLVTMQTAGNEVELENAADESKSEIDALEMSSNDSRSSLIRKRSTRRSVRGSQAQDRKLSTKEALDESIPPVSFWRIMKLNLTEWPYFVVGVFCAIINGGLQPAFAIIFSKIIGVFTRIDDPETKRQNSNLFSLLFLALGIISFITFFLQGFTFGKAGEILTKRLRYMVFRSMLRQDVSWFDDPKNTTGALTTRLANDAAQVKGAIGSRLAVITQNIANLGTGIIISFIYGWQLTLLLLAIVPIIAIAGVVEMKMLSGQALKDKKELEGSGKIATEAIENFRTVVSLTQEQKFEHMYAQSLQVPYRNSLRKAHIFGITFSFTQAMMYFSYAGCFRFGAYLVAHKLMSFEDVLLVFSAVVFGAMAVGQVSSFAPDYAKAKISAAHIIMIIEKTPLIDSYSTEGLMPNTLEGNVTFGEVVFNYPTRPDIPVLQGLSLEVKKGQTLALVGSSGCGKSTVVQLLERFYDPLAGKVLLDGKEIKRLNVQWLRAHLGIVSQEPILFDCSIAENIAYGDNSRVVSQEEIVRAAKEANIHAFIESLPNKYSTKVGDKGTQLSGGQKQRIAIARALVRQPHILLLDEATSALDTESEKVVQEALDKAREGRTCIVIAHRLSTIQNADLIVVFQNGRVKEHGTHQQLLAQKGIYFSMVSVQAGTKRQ
T1 sequence (P08183 whole entry): as above

CCOP(=S)(OCC)Oc1cc(Cl)c(SC)cc1Cl [CHLORTHIOPHOS]
Inhibition [1]: inhibitor [51-80 % inhibition]

CC1(C)CNC(=NN=C(/C=C/c2ccc(C(F)(F)F)cc2)/C=C/c2ccc(C(F)(F)F)cc2)NC1 [HYDRAMETHYLNON]
inhibition at 8 µM [2]: > 80%

COP(=S)(Oc1cc(Cl)c(Br)cc1Cl)c1ccccc1 (stereo not given) [LEPTOPHOS]
Inhibition [3]: inhibitor [51-80 % inhibition]

O=S1OCC2C(CO1)C1(Cl)C(Cl)=C(Cl)C2(Cl)C1(Cl)Cl (stereo not given) [ENDOSULFAN]
inhibition at 100 µM [4]: > 80% | Activity [5]: substrate [+]

ClC1=C(Cl)C2(Cl)C3C(Cl)C=CC3C1(Cl)C2(Cl)Cl (stereo not given) [HEPTACHLOR]
inhibition at 250 µM [6]: > 80%

CCOP(=S)(OCC)Oc1ccc([N+](=O)[O-])cc1 [PARATHION]
inhibition at 250 µM [7]: > 80%

Oc1c(Cl)c(Cl)c(O)c(Cl)c1Cl [TETRACHLOROHYDROQUINONE]
inhibition at 250 µM [8]: > 80%

CCOP(=O)(NC(C)C)Oc1ccc(SC)c(C)c1 (stereo not given) [PHENAMIPHOS]
Inhibition [9]: inhibitor [51-80 % inhibition]

Clc1ccccc1C(c1ccccc1)(c1ccccc1)n1ccnc1 [CLOTRIMAZOLE]
Inhibition [10]: inhibitor [51-80 % inhibition]

ClC1=C(Cl)C2(Cl)C3C4OC4C(Cl)C3C1(Cl)C2(Cl)Cl (stereo not given) [HEPTACHLOR EPOXIDE]
inhibition at 250 µM [11]: > 80%

CC(C)[C@H](Nc1ccc(C(F)(F)F)cc1Cl)C(=O)OC(C#N)c1cccc(Oc2ccccc2)c1 (stereo not given in full) [FLUVALINATE]
Inhibition [12]: inhibitor [31-50 % inhibition]

O=C1C2(Cl)C3(Cl)C4(Cl)C(Cl)(Cl)C5(Cl)C3(Cl)C1(Cl)C5(Cl)C24Cl (stereo not given) [KEPONE]
inhibition at 250 µM [13]: > 80%

COP(=S)(OC)Oc1ccc([N+](=O)[O-])cc1Cl [DICAPTHON]
inhibition at 250 µM [14]: > 80%

CCOP(=S)(OCC)Oc1nc(Cl)c(Cl)cc1Cl [CHLORPYRIFOS]
Inhibition [15]: inhibitor [51-80 % inhibition]
